pIC50: −log10 of the molar value.
Tests used:
hOX1R = hOX1R (Homo sapiens, UniProt O43613); experiment: hOX1R FLIPR Ca2+ flux assay; format: cell-based; details: CHO cells expressing orexin-1 receptor; agonist 70 pM Ala-6,12 orexin-A; read-out: hOX1R FLIPR IC50
human orexin-2 receptor = human orexin-2 receptor (Homo sapiens (Human), UniProt O43614); experiment: hOX2R FLIPR Ca2+ flux assay; format: cell-based; details: CHO cells expressing human orexin-2 receptor; agonist 70 pM Ala-6,12 orexin-A
Experimental: In a typical experiment the OX1 and OX2 receptor antagonistic activity of the compounds of the present invention was determined in accordance with the following experimental method. For intracellular calcium measurements, Chinese hamster ovary (CHO) cells expressing the rat orexin-1 receptor or the human orexin-2 receptor, are grown in Iscove's modified DMEM containing 2 mM L-glutamine, […], 1% hypoxanthine-thymidine supplement, 100 U/ml penicillin, 100 μg/ml streptomycin and 10% heat-inactivated fetal calf serum (FCS). The cells are seeded at 20,000 cells/well into Becton-Dickinson black 384-well clear bottom sterile plates coated with poly-D-lysine. All reagents were from GIBCO-Invitrogen Corp. The seeded plates are incubated overnight at 37° C. and 5% CO2. Ala-6,12 human orexin-A as the agonist is prepared as a 1 mM stock solution in 1% bovine serum albumin (BSA) and diluted in assay buffer (HBSS containing 20 mM HEPES, 0.1% BSA and 2.5 mM probenecid, pH7.4) for use in the assay at a final concentration of 70 pM. Test compounds are prepared as 10 mM stock solution in DMSO, then diluted in 384-well plates, first in DMSO, then assay buffer. On the day of the assay, cells are washed 3 times with 100 μl assay buffer and then incubated for 60 min (37° C., 5% CO2) in 60 μl assay buffer containing […] Fluo-4AM ester, 0.02% pluronic acid, and 1% BSA. The dye loading solution is then aspirated and cells are washed 3 times with 100 μl assay buffer. 30 μl of that same buffer is left in each well. Within the Fluorescent Imaging Plate Reader (FLIPR, Molecular Devices), test compounds are added to the plate in a volume of 25 μl, incubated for 5 min and finally 25 μl of agonist is added. Fluorescence is measured for each well at 1 second intervals for 5 minutes and the height of each fluorescence peak is compared to the height of the fluorescence peak induced by 70 pM Ala-6,12 orexin-A with buffer in place of antagonist. For each antagonist, IC50 value (the concentration of compound needed to inhibit 50% of the agonist response) is determined. Alternatively, compound potency can be assessed by a radioligand binding assay (described in Bergman et. al. Bioorg. Med. Chem. Lett. 2008, 18, 1425-1430) in which the inhibition constant (Ki) is determined in membranes prepared from CHO cells expressing either the OX1 or OX2 receptor. The intrinsic orexin receptor antagonist activity of a compound which may be used in the present invention may be determined by these assays.

Chain of human orexin-2 receptor (O43614 whole entry): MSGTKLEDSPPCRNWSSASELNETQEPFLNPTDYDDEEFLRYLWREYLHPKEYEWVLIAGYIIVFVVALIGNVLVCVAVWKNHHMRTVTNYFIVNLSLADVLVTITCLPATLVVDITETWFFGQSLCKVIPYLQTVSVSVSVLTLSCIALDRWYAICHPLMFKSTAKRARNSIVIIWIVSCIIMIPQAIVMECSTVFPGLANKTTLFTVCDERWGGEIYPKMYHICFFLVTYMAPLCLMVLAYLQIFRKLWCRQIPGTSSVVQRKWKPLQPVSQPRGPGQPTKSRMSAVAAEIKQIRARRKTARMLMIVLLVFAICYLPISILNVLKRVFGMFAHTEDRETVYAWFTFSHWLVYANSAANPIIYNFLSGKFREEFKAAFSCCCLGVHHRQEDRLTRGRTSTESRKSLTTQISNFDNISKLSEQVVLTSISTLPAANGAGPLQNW

## Cc1oc(C[C@H]2CCCCN2C(=O)c2ccccc2C2CC2(F)F)nc1C(C)(C)O (stereo partly drawn) [Example 27, (2-(2,2-difluorocyclopropyl)phenyl)((R)-2-((4-(2-hydroxypropan-2-yl)-5-methyloxazol-2-yl)methyl)piperidin-1-yl)methanone]
hOX1R
  pIC50: 6.33
Human orexin-2 receptor
  pIC50: 7.42

## Cc1oc(C[C@H]2CCCCN2C(=O)c2ccccc2-n2ncnn2)nc1C(C)(C)O [Example 28, (R)-(2-(2H-tetrazol-2-yl)phenyl)(2-((4-(2-hydroxypropan-2-yl)-5-methyloxazol-2-yl)methyl)piperidin-1-yl)methanone]
hOX1R
  pIC50: 6.31
Human orexin-2 receptor
  pIC50: 6.82

## CCCc1ccccc1C(=O)N1CCCC[C@@H]1Cc1nc(C(C)(C)O)c(C)o1 [Example 29, (R)-(2-((4-(2-hydroxypropan-2-yl)-5-methyloxazol-2-yl)methyl)piperidin-1-yl)(2-propylphenyl)methanone]
hOX1R
  pIC50: 6.10
Human orexin-2 receptor
  pIC50: 6.97

## Cc1ccc(-n2nccn2)c(C(=O)N2CCCC[C@@H]2Cc2nc(C(C)(C)O)c(C)o2)c1 [Example 30, (R)-(2-((4-(2-hydroxypropan-2-yl)-5-methyloxazol-2-yl)methyl)piperidin-1-yl)(5-methyl-2-(2H-1,2,3-triazol-2-yl)phenyl)methanone]
hOX1R
  pIC50: 7.30
Human orexin-2 receptor
  pIC50: 7.34

## Cc1oc(C[C@H]2CCCCN2C(=O)c2ccccc2-c2ncccn2)nc1C(C)(C)O [Example 31, (R)-(2-((4-(2-hydroxypropan-2-yl)-5-methyloxazol-2-yl)methyl)piperidin-1-yl)(2-(pyrimidin-2-yl)phenyl)methanone]
hOX1R
  pIC50: 7.12
Human orexin-2 receptor
  pIC50: 7.33

From US9920038B2, “Methyl oxazole orexin receptor antagonists” (MERCK SHARP & DOHME CORP., priority 2014, dated 2018)
